Patent US20230080054A1 (ILDONG PHARMACEUTICAL CO., LTD., priority 2021, published 2023)

Legend:
human ANO6 [1] = molecular target: T1, human ANO6 (Homo sapiens, UniProt Q4KMQ2); experiment: YFP quenching assay (ANO6 ion channel activity); type: cell-based; details: 10 μM ionomycin; for inhibition at 1 µM: test compound 1 μM, read-out: Inhibition Level 1 μM; for inhibition at 30 µM: test compound 30 μM, read-out: Inhibition Level 30 μM
T1 construct: expressed in transfected cells
T1 sequence (Q4KMQ2 1-931 isoform Q4KMQ2-2): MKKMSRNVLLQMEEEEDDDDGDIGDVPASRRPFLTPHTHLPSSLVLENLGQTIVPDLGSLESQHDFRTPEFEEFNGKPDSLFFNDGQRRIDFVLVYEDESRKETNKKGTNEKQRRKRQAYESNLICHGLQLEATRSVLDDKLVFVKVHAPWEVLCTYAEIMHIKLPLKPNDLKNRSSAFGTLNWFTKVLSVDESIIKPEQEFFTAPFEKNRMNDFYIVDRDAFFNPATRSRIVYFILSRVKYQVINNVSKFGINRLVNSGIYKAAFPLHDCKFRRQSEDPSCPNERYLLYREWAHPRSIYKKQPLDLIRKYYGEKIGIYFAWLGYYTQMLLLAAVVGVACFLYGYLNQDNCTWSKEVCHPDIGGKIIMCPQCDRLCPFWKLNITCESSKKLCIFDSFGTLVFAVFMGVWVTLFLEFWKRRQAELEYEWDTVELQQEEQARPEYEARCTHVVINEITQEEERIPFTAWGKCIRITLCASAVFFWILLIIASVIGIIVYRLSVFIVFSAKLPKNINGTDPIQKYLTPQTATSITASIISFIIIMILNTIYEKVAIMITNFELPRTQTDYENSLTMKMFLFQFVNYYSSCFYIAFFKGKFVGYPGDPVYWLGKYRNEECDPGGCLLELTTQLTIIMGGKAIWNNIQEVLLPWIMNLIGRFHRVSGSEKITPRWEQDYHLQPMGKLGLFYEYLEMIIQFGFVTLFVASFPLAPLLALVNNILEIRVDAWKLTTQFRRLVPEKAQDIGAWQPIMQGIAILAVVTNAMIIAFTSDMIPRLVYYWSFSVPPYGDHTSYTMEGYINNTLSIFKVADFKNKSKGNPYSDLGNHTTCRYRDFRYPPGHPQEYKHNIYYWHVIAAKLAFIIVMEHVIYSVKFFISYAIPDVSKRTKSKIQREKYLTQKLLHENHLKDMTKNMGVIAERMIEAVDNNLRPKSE
How it was run: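 FRT cells stably expressing human ANO6 and YFP-H148Q/I152L/F46L, preincubated 10 min at 40° C with compounds (1% DMSO) in PBS. Quench read every 0.4 s after injecting 140 mM SCN- with 10 μM ionomycin; % inhibition from the 3.6–7.6 s fluorescence difference, normalised to no-ionomycin (100%) and ionomycin-only (0%) wells, duplicate or triplicate.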

human ANO6 [2] = molecular target: T1, human ANO6; experiment: LACT C2 assay (phosphatidylserine scramblase function assay); type: cell-based; details: FRT cells expressing human ANO6, 10 μM ionomycin; for inhibition at 0.1 µM: test compound 100 nM, read-out: Inhibition Level 100 nM; for inhibition at 1 µM: test compound 1 μM, read-out: Inhibition Level 1 μM
How it was run: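 Inhibition was normalised between ionomycin-only (0%) and untreated (100%) wells, with triplicates averaged. Readout was background-corrected Lact-C2-GFP (500 nM) fluorescence from imaged cells. The cells were FRT cells stably expressing human ANO6, given compound at 1% DMSO for 10 min before a 10 min 10 μM ionomycin challenge.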

SMILES	inhibition at 1 µM (human ANO6 [1])	inhibition at 30 µM (human ANO6 [1])	inhibition at 0.1 µM (human ANO6 [2])	inhibition at 1 µM (human ANO6 [2])
Cc1ccc(CNC(=O)c2cccc(Nc3ccc(C4CCCCC4)nn3)c2)o1 [Compound 63, 3-[(6-cyclohexylpyridazin-3-yl)amino]-N-[(5-methylfuran-2-yl)methyl]benzamide]	30 to 60%			< 30%
O=C(NCCCc1ccccc1)c1cccc(Nc2cnc(-c3ccccc3)cn2)c1 [Compound 54, N-(3-phenylpropyl)-3-[(5-phenylpyrazin-2-yl)amino]benzamide]	≥ 60%			< 30%
Cc1ccc(CNC(=O)c2cccc(Nc3ccc(-c4ccsc4)nn3)c2)o1 [Compound 73, N-[(5-methylfuran-2-yl)methyl]-3-{[6-(thiophen-3-yl)pyridazin-3-yl]amino}benzamide]	≥ 60%		< 30%	≥ 60%
O=C(NCCc1cccc(F)c1)c1cccc(Nc2ncc(-c3ccccc3)cn2)c1 [Compound 90, N-[2-(3-fluorophenyl)ethyl]-3-[(5-phenylpyrimidin-2-yl)amino]benzamide]	≥ 60%			30 to 60%
O=C(NC1CCC1)c1cccc(Nc2ccc(-c3ccccc3)nn2)c1 [Compound 25, N-cyclobutyl-3-[(6-phenylpyridazin-3-yl)amino]benzamide]	30 to 60%	≥ 60%		30 to 60%
O=C(NCC1CC1)c1cccc(Nc2ccc(-c3ccccc3)nn2)c1 [Compound 32, N-(cyclopropylmethyl)-3-[(6-phenylpyridazin-3-yl)amino]benzamide]	≥ 60%	≥ 60%		< 30%
Cc1ccc(CNC(=O)c2cccc(Nc3ccc(-c4ccccc4)cn3)c2)o1 [Compound 4, N-[(5-methylfuran-2-yl)methyl]-3-[(5-phenylpyridin-2-yl)amino]benzamide]	≥ 60%	≥ 60%	< 30%	≥ 60%
Cc1ccc(CNC(=O)c2cccc(Nc3ncc(-c4ccoc4C)cn3)c2)o1 [Compound 112, N-[(5-methylfuran-2-yl)methyl]-3-{[5-(2-methylfuran-3-yl)pyrimidin-2-yl]amino}benzamide]	≥ 60%			30 to 60%
Cc1ccc(CNC(=O)c2cccc(Nc3ccc(-c4cscc4C)nn3)c2)o1 [Compound 74, N-[(5-methylfuran-2-yl)methyl]-3-{[6-(4-methylthiophen-3-yl)pyridazin-3-yl]amino}benzamide]	≥ 60%		30 to 60%	≥ 60%
Cc1ccc(CNC(=O)c2cccc(Nc3ncc(-c4cccs4)cn3)c2)o1 [Compound 110, N-[(5-methylfuran-2-yl)methyl]-3-{[5-(thiophen-2-yl)pyrimidin-2-yl]amino}benzamide]	30 to 60%			30 to 60%
O=C(NC1COC1)c1cccc(Nc2ccc(-c3ccccc3)nn2)c1 [Compound 26, N-(oxetan-3-yl)-3-[(6-phenylpyridazin-3-yl)amino]benzamide]	30 to 60%	≥ 60%		
Cc1ccc(CNC(=O)c2cccc(Nc3cccc(-c4ccccc4)c3)c2)o1 [Compound 88, 3-({[1,1′-biphenyl]-3-yl}amino)-N-[(5-methylfuran-2-yl)methyl]benzamide]	< 30%			

Continued, values first:

inhibition at 1 µM (human ANO6 [1])	inhibition at 30 µM (human ANO6 [1])	inhibition at 0.1 µM (human ANO6 [2])	inhibition at 1 µM (human ANO6 [2])	SMILES
≥ 60%	≥ 60%	< 30%	30 to 60%	Cc1ccccc1CNC(=O)c1cccc(Nc2ccc(-c3ccccc3)nn2)c1 [Compound A48]
≥ 60%	≥ 60%	30 to 60%	30 to 60%	O=C(NCCCc1ccccc1)c1cccc(Nc2ccc(-c3ccccc3)nn2)c1 [Compound A51]
≥ 60%	≥ 60%	< 30%	30 to 60%	O=C(NCc1ccc(Br)cc1)c1cccc(Nc2ccc(-c3ccccc3)nn2)c1 [Compound A43]
≥ 60%	≥ 60%	< 30%	< 30%	Cc1cccc(CNC(=O)c2cccc(Nc3ccc(-c4ccc(F)cc4)nn3)c2)c1 [Compound A5]
≥ 60%	≥ 60%	< 30%	< 30%	CCC(C)NC(=O)c1cccc(Nc2ccc(-c3ccccc3)nn2)c1 (centres unmarked) [Compound A78]
≥ 60%	≥ 60%	< 30%	≥ 60%	O=C(NC1CCCCCC1)c1cccc(Nc2ccc(-c3ccc(F)cc3)nn2)c1 [Compound A3]
≥ 60%		< 30%	30 to 60%	O=C(Nc1ccc(N2CCOCC2)cc1)c1cccc(Nc2ncc(-c3cccc(F)c3)cn2)c1 [Compound A84]
≥ 60%	≥ 60%	< 30%	< 30%	Cc1ccc(CNC(=O)c2cccc(Nc3ccc(-c4ccccc4)nn3)c2)cc1 [Compound A52]
30 to 60%	≥ 60%	< 30%	< 30%	CCOc1ccc(CNC(=O)c2cccc(Nc3ccc(-c4ccccc4)nn3)c2)cc1OCC [Compound A54]
≥ 60%		30 to 60%	≥ 60%	O=C(Nc1ccccc1)c1cccc(Nc2ccc(-c3ccccc3)nn2)c1 [Compound A89]
30 to 60%	≥ 60%	< 30%	< 30%	O=C(NCc1ccc(Br)cc1)c1cccc(Nc2ccc(-c3ccc(F)cc3)nn2)c1 [Compound A26]
≥ 60%	≥ 60%	< 30%	30 to 60%	CC(C)CCNC(=O)c1cccc(Nc2ccc(-c3ccc(F)cc3)nn2)c1 [Compound A13]
≥ 60%	≥ 60%	< 30%	30 to 60%	COc1cccc(CNC(=O)c2cccc(Nc3ccc(-c4ccccc4)nn3)c2)c1 [Compound A76]
30 to 60%	≥ 60%	< 30%	< 30%	O=C(NCc1ccccc1)c1cccc(Nc2ccc(-c3ccc(F)cc3)nn2)c1 [Compound A16]
≥ 60%	≥ 60%	< 30%	< 30%	O=C(NCCCc1ccccc1)c1cccc(Nc2ccc(-c3ccc(F)cc3)nn2)c1 [Compound A6]
≥ 60%	≥ 60%	< 30%	< 30%	O=C(NCc1ccccc1)c1cccc(Nc2ccc(-c3cccc(F)c3)nn2)c1 [Compound A34]
≥ 60%	≥ 60%	< 30%	30 to 60%	O=C(NC1CCN(Cc2ccccc2)CC1)c1cccc(Nc2ccc(-c3ccccc3)nn2)c1 [Compound A73]
30 to 60%	≥ 60%			O=C(NC1CCCc2ccccc21)c1cccc(Nc2ccc(-c3ccccc3)nn2)c1 (centres unmarked) [Compound A56]
30 to 60%				CCN(CC)c1ccc(CNC(=O)c2cccc(Nc3ncc(-c4cccc(F)c4)cn3)c2)cc1 [Compound A81]
